Assay results reported in patent publication US20150065421A1, “BASAL INSULIN THERAPY” (SANOFI, priority 2012, published 2015).

Columns and labels:
[1] = tested on: people with IGT, IFG, or early diabetes; experiment: Double-blind pilot study HOE901/1021 (safety and feasibility); format: in vivo, human
From the text: The use of exogenous insulin in an IGT, IFG, or diabetic population might confer several potential metabolic and cardiovascular benefits: • 1. The fact that it is finely titratable and durable (compared to oral antidiabetic agents) may translate into a powerful effect to delay the exposure of target tissues to toxic levels of glycemia. • 2. Insulin-mediated suppression of circulating free fatty acids (FFA) will: • reduce VLDL synthesis and improve lipoprotein patterns (i.e. lower triglycerides, and increase HDL-C); • reduce lipotoxicity at the level of the beta cell and at insulin's target tissues; • reduce obligatory oxidative metabolism in ischemic myocardium. • 3. Exogenous insulin will prevent metabolic decompensation due to stress, that is either mild and frequent (i.e. daily stresses and minor illness or injury), or severe and less common (i.e. major injury, illness, surgery, vascular events). These stress events would normally suppress endogenous insulin responses even when a pharmacologic secretagogue or sensitizer is present; exogenous, injected insulin cannot be suppressed in such a way. • 4. Nitric oxide-mediated vasodilation and endothelial function are abnormal in those with IFG, IGT, or diabetes. Additionally, markers of endothelial inflammation are increased. These abnormalities are all improved by insulin treatment. […]

[2] = tested on: people at high risk for vascular disease with either IFG, IGT, or early type 2 diabetes; experiment: ORIGIN trial: cardiovascular, mortality and cancer outcomes; format: in vivo, human
From the text: The ORIGIN study was an international, multicenter, randomized, open-label (for insulin glargine versus standard care), double-blind (for omega-3 PUFA versus placebo), 2×2 factorial design study to evaluate whether patients with IGT, IFG, or early T2DM, who were at high risk for macrovascular events, could be safely treated with insulin glargine and omega-3 PUFA, and if either insulin glargine-mediated normoglycemia and/or omega-3 PUFA reduce or prevent CV morbidity and/or mortality. Patients were randomized to either receive insulin glargine treatment as a titrated regimen which targeted fasting plasma glucose (FPG) of 95 mg/dL or standard care according to current guidelines for dysglycemia accompanied by appropriate lifestyle modifications. Patients were also independently randomized to receive either ethyl esters of omega-3 PUFA or matching placebo.
Patients were to be randomly assigned to receive either insulin glargine treatment or standard care for their dysglycemia. Patients randomized to the insulin glargine group received Lantus® (insulin glargine 100 U/mL solution) once daily (QD) by subcutaneous (SC) injection in a titrated regimen targeting an FPG of […] (5.3 mmol/L). Nondiabetic patients randomized to standard care were followed for the development of diabetes, and were encouraged to continue to modify diet and physical activity levels. Blood glucose management of diabetic patients (or nondiabetic patients who developed diabetes during the study) randomized to standard care was to be performed according to current (at that time) guidelines. All patients were to be encouraged to appropriately modify their lifestyle.
ORIGIN was an international randomized factorial trial of the effect of titrated basal insulin therapy versus standard care and of omega 3 fasty acid supplements versus placebo on incident CV outcomes. Results of the omega 3 fatty acid arm are reported separately (REF). […] The HbA1c level of people with prior diabetes had to be low enough to minimize the likelihood that insulin would be needed to maintain glycemic control during follow-up if allocated to standard care. Key exclusion criteria included unwillingess or an inability to inject insulin or do capillary glucose testing, a clear indication for, or intolerance to insulin or omega 3 fatty acids, unwillingness to stop thiazolidinediones if allocated to glargine, heart failure, or coronary artery bypass surgery within the prior 4 years with no intervening CV event. The study was approved by each site's ethics committee and all participants provided written informed consent.
Participants were asked to self-administer daily subcutaneous saline injections and to check their capillary glucose levels during a 10 day run-in period. Adherent participants were then provided with lifestyle advice and randomly allocated to either insulin glargine (Lantus™) or standard approaches to glycaemic control. Participants allocated to insulin glargine who were also taking a thiazolidinedione stopped that medication at the time of randomization; otherwise the insulin glargine was added to their glycemic regimen. These participants were instructed to inject insulin glargine in the evening, starting at 2, 4 or 6 units (depending on their initial FPG) and to increase the dose at least once per week targeting a self-measured FPG level ≦5.3 mmol/l (95 mg/dl) and ≧4 mmol/l (72 mg/dl). […] If participants developed uncontrolled hyperglycemia, investigators were permitted to add rapid-acting insulin. No other glucose-lowering medication could be added or increased. FPG levels were measured in the local laboratory at every visit and the results were regularly reviewed along with the dose of insulin to ensure that insulin was being effectively trirated. People not diagnosed with diabetes by the time of the penultimate study visit down-titrated insulin glargine by 10 units per day and stopped any metformin that was prescribed.
There were 2 co-primary composite CV outcomes. […]

[3] = glargine group, 6-7 years exposure, p=0.02 vs standard care
[4] = insulin glargine group, median follow-up 6.2 years
[5] = insulin glargine vs standard care

(Gly A21) Arg (B31) Arg (B32) human insulin [insulin glargine]
severity of hypoglycemia episodes ([1]; all episodes): mild
subjects who experienced hypoglycemia ([1]; of 13 insulin glargine subjects, two weeks, calorie-restricted diet, titrated to FPG 80-95 mg/dL): Two
patients who developed a new angina (number) [2, 3]: 100 patients
patients who developed a new angina (percent) [2, 3]: 1.6%
incidence of the composite outcome of nonfatal MI, nonfatal stroke or CV death (first co-primary outcome) [2, 4]: 2.94 /100 person-years
incidence of the second co-primary outcome (first plus revascularization or heart failure hospitalization) [2, 4]: 5.53 /100 person-years
incidence of any cancer or cancer death, difference to standard care [2, 5]: no difference
mortality, difference to standard care [2, 5]: no statistically significant difference
adjusted HR, first co-primary outcome ([2]; insulin glargine vs standard care, 95% CI 0.88, 1.12, P=0.9): 0.99
adjusted HR, second co-primary outcome ([2]; insulin glargine vs standard care, 95% CI 0.91, 1.10, P=0.99): 1.00
